Tested on: A498 complex spheroids with HUVEC/MSC, growth
Experiment: Anticancer human tumor A498 cell line growth inhibition [AhR];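 also: seven day exposure starting three days after spheroid seeding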;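 as to viability, T/C: luminescence signal used as a surrogate for viable cells; luminescence viability scaled so 100% equals DMSO vehicle wells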
Conditions: for IC50: curve of first compound; for viability, T/C: stronger effect = lower value
Excerpt: Multicellular complex tumor spheroid response to aryl hydrocarbon receptor antagonists in combination with a variety of drugs and investigational agents in selected tumor cell lines
The current study was undertaken to assess response to aryl hydrocarbon receptor antagonists in combination with standard-of-care drugs and investigational agents in solid tumor complex spheroid models. Complex spheroids include a stromal component modeled by human endothelial cells (HUVEC) and fibroblasts modeled by human mesenchymal stem cells (MSCs). The concentration ranges selected for each drug and investigational agent were based upon clinically achievable concentrations if the clinical Cmax of the agent was known.
Compounds. The drugs and investigational agents: BAY 2416964 (NSC825713), GNF351 (NSC835774), CH-223191 (NSC835775), CPI-455 (NSC825282), aza-TdCyd (NSC777586), decitabine (NSC127716), belinostat (NSC758774), entinostat (NSC756642), pevonedistat (NSC761192), tazemetostat (NSC777109), talazoparib (NSC765396), olaparib (NSC753686), selinexor (NSC780203), nedisertib (M3814, NSC802822), bortezomib (NSC756655), venetoclax (NSC766270), doxorubicin (NSC123127), elimusertib (BAY189344, NSC800525), ceralasertib (AZD6738, NSC777638), TAK-243 (NSC785004), alisertib (NSC759677), etoposide (NSC141540), topotecan (NSC609699), eribulin (NSC707389), gemcitabine (NSC613327), carboplatin (NSC241240), cisplatin (NSC119875), and SN-38 (NSC673596) were obtained from the National Cancer Institute (NCI) Developmental Therapeutics Program Chemical Repository (32). The FDA-approved anticancer drug set is available from the Developmental Therapeutics Program at https://dtp.cancer.gov/organization/dscb/obtaining/available plates.htm. […] The stock solutions were prepared in dimethyl sulfoxide (DMSO, Sigma-Aldrich, St. Louis, MO, cat. D2650), except for the platinum compounds which were prepared in saline (Quality Biological, Gaithersburg, MD, cat. 114-055-101), at 800-fold the tested concentration and stored at -70 degrees C prior to their use. All drugs and investigational agents were tested over a range starting from a high concentration at or near the clinical Cmax and decreasing in half-log increments. If the clinical Cmax for an agent had not been determined, the highest concentration tested was 10 microM (Table 1).
Cell Culture. All cells were maintained in an incubator at 37 degrees C and 5% CO2 with 95% humidity. The PDC lines were cultured according to standard operating procedures established by the NCI PDMR (https://pdmr.cancer.gov). Briefly, all PDCs were thawed and cultured in Matrigel-coated flasks prepared with a working solution of 1X Ham's F-12 nutrient mix, without supplementation (Invitrogen, Waltham, MA, cat. 11765054), 100 U/mL penicillin-streptomycin (Invitrogen, cat. 15140122), and 2.5% Matrigel (Corning Inc., Corning, NY, cat. 354248) for the first three passages. All PDCs were cultured in complete DMEM/F-12 media containing advanced DMEM/F-12 (Invitrogen, cat. 12634028), 4.9% defined fetal bovine serum, heat inactivated (HyClone Laboratories Inc., Logan, UT, cat. SH30070.03HI), 389 ng/mL hydrocortisone (Sigma-Aldrich, cat. H4001), 9.7 ng/mL human EGF recombinant protein (Invitrogen, cat. PHG0313), 23.4 microg/mL adenine (Sigma-Aldrich, cat. A2786), 97.3 U/mL penicillin-streptomycin (Invitrogen, cat. 15140122), 1.9 mM L-glutamine (Invitrogen, cat. 25030081), and 9.7 microM Y-27632 dihydrochloride (Tocris Bioscience, Bristol, United Kingdom, cat. 1254). The PDCs were cultured in complete DMEM/F12 media without 10 microM Y-27632 dihydrochloride for at least two passages prior to the screen. The established cell lines NCI-H1341 and […] were cultured in DMEM/F-12, HEPES (Invitrogen, cat. 11330032), 5% defined fetal bovine serum (HyClone Laboratories Inc., cat. SH30070.03), ITS premix universal culture supplement [insulin (5 microg/mL), transferrin (5 microg/mL), and selenious acid (5 ng/mL)] […]

[1] = second compound 0.1 µM, first compound 0.0316 µM
[2] = second compound 0.1 µM, first compound 0.1 µM
[3] = second compound 0.1 µM, first compound 0.316 µM
[4] = second compound 0.1 µM, first compound 1 µM
[5] = second compound 0.316 µM, first compound 0.0316 µM
[6] = second compound 0.316 µM, first compound 0.1 µM
[7] = second compound 0.316 µM, first compound 0.316 µM
[8] = second compound 0.316 µM, first compound 1 µM
[9] = second compound 1 µM, first compound 0.0316 µM
[10] = second compound 1 µM, first compound 0.1 µM
[11] = second compound 1 µM, first compound 0.316 µM
[12] = second compound 1 µM, first compound 1 µM
[13] = second compound 3.16 µM, first compound 0.0316 µM
[14] = second compound 3.16 µM, first compound 0.1 µM
[15] = second compound 3.16 µM, first compound 0.316 µM
[16] = second compound 3.16 µM, first compound 1 µM
[17] = second compound 10 µM, first compound 0.0316 µM
[18] = second compound 10 µM, first compound 0.1 µM
[19] = second compound 10 µM, first compound 0.316 µM
[20] = second compound 10 µM, first compound 1 µM

Nc1ncn(C2CC(O)C(CO)O2)c(=O)n1 (stereo not given) + CC(CO)NC(=O)c1cc(-c2ccc(Cl)cc2)nn(-c2cnn(C)c2)c1=O
IC50 (second compound 0.1 µM): > 1 µM | IC50 (second compound 0.316 µM): > 1 µM | IC50 (second compound 1 µM): > 1 µM | IC50 (second compound 3.16 µM): > 1 µM | IC50 (second compound 10 µM): > 1 µM | viability, T/C (second compound 0.1 µM, first compound 0.00316 µM): 96.1% | viability, T/C (second compound 0.1 µM, first compound 0.01 µM): 91.9% | viability, T/C [1]: 88% | viability, T/C [2]: 76.1% | viability, T/C [3]: 77.8% | viability, T/C [4]: 66.7% | viability, T/C (second compound 0.316 µM, first compound 0.00316 µM): 83.7% | viability, T/C (second compound 0.316 µM, first compound 0.01 µM): 97.2% | viability, T/C [5]: 86.2% | viability, T/C [6]: 78.2% | viability, T/C [7]: 76% | viability, T/C [8]: 66.9% | viability, T/C (second compound 1 µM, first compound 0.00316 µM): 88.3% | viability, T/C (second compound 1 µM, first compound 0.01 µM): 87% | viability, T/C [9]: 88.4% | viability, T/C [10]: 75.1% | viability, T/C [11]: 75.4% | viability, T/C [12]: 67% | viability, T/C (second compound 3.16 µM, first compound 0.00316 µM): 79.7% | viability, T/C (second compound 3.16 µM, first compound 0.01 µM): 85.7% | viability, T/C [13]: 84% | viability, T/C [14]: 70.7% | viability, T/C [15]: 67.1% | viability, T/C [16]: 59.2% | viability, T/C (second compound 10 µM, first compound 0.00316 µM): 62% | viability, T/C (second compound 10 µM, first compound 0.01 µM): 67.1% | viability, T/C [17]: 67% | viability, T/C [18]: 55.8% | viability, T/C [19]: 52.8% | viability, T/C [20]: 53.6%

Nc1ccccc1NC(=O)c1ccc(CNC(=O)OCc2cccnc2)cc1 + CC(CO)NC(=O)c1cc(-c2ccc(Cl)cc2)nn(-c2cnn(C)c2)c1=O
IC50 (second compound 0.1 µM): 0.963 µM | IC50 (second compound 0.316 µM): 0.799 µM | IC50 (second compound 1 µM): 0.766 µM | IC50 (second compound 3.16 µM): 0.703 µM | IC50 (second compound 10 µM): 0.322 µM | viability, T/C [1]: 89.4% | viability, T/C [2]: 88.8% | viability, T/C [3]: 77.7% | viability, T/C [4]: 44.6% | viability, T/C (second compound 0.1 µM, first compound 3.16 µM): 24.5% | viability, T/C (second compound 0.1 µM, first compound 10 µM): 1.98% | viability, T/C [5]: 79.5% | viability, T/C [6]: 85.8% | viability, T/C [7]: 74% | viability, T/C [8]: 39.5% | viability, T/C (second compound 0.316 µM, first compound 3.16 µM): 23.2% | viability, T/C (second compound 0.316 µM, first compound 10 µM): 2.07% | viability, T/C [9]: 75% | viability, T/C [10]: 75% | viability, T/C [11]: 78.5% | viability, T/C [12]: 39.2% | viability, T/C (second compound 1 µM, first compound 3.16 µM): 23% | viability, T/C (second compound 1 µM, first compound 10 µM): 4.91% | viability, T/C [13]: 64.5% | viability, T/C [14]: 73.8% | viability, T/C [15]: 71.4% | viability, T/C [16]: 38.1% | viability, T/C (second compound 3.16 µM, first compound 3.16 µM): 20.2% | viability, T/C (second compound 3.16 µM, first compound 10 µM): 1.92% | viability, T/C [17]: 58.2% | viability, T/C [18]: 53.1% | viability, T/C [19]: 55.1% | viability, T/C [20]: 28.7% | viability, T/C (second compound 10 µM, first compound 3.16 µM): 14.5% | viability, T/C (second compound 10 µM, first compound 10 µM): 0.8%

CCc1c2c(nc3ccc(O)cc13)-c1cc3c(c(=O)n1C2)COC(=O)[C@]3(O)CC + CC(CO)NC(=O)c1cc(-c2ccc(Cl)cc2)nn(-c2cnn(C)c2)c1=O
IC50 (second compound 0.1 µM): 0.0192 µM | IC50 (second compound 0.316 µM): 0.016 µM | IC50 (second compound 1 µM): 0.019 µM | IC50 (second compound 3.16 µM): 0.016 µM | IC50 (second compound 10 µM): 0.00473 µM | viability, T/C (second compound 0.1 µM, first compound 0.000949 µM): 77.1% | viability, T/C (second compound 0.1 µM, first compound 0.003 µM): 77.9% | viability, T/C (second compound 0.1 µM, first compound 0.00949 µM): 61.7% | viability, T/C (second compound 0.1 µM, first compound 0.03 µM): 42.4% | viability, T/C (second compound 0.1 µM, first compound 0.0949 µM): 37.3% | viability, T/C (second compound 0.1 µM, first compound 0.3 µM): 33.1% | viability, T/C (second compound 0.316 µM, first compound 0.000949 µM): 70.8% | viability, T/C (second compound 0.316 µM, first compound 0.003 µM): 70.9% | viability, T/C (second compound 0.316 µM, first compound 0.00949 µM): 57.8% | viability, T/C (second compound 0.316 µM, first compound 0.03 µM): 40.7% | viability, T/C (second compound 0.316 µM, first compound 0.0949 µM): 36.4% | viability, T/C (second compound 0.316 µM, first compound 0.3 µM): 36.7% | viability, T/C (second compound 1 µM, first compound 0.000949 µM): 69.8% | viability, T/C (second compound 1 µM, first compound 0.003 µM): 72.3% | viability, T/C (second compound 1 µM, first compound 0.00949 µM): 62.6% | viability, T/C (second compound 1 µM, first compound 0.03 µM): 41.6% | viability, T/C (second compound 1 µM, first compound 0.0949 µM): 35.5% | viability, T/C (second compound 1 µM, first compound 0.3 µM): 34.1% | viability, T/C (second compound 3.16 µM, first compound 0.000949 µM): 58.8% | viability, T/C (second compound 3.16 µM, first compound 0.003 µM): 63.1% | viability, T/C (second compound 3.16 µM, first compound 0.00949 µM): 58.3% | viability, T/C (second compound 3.16 µM, first compound 0.03 µM): 39.8% | viability, T/C (second compound 3.16 µM, first compound 0.0949 µM): 30.5% | viability, T/C (second compound 3.16 µM, first compound 0.3 µM): 33.8% | viability, T/C (second compound 10 µM, first compound 0.000949 µM): 51.2% | viability, T/C (second compound 10 µM, first compound 0.003 µM): 53.3% | viability, T/C (second compound 10 µM, first compound 0.00949 µM): 46.6% | viability, T/C (second compound 10 µM, first compound 0.03 µM): 36.4% | viability, T/C (second compound 10 µM, first compound 0.0949 µM): 29.3% | viability, T/C (second compound 10 µM, first compound 0.3 µM): 31.8%
